Among the data in US20050234076A1, “Triazolopyrimidines” (priority 2002, published 2005) are Efficacy in % and pest or weed control values, retold here.

Each structure is given as a SMILES string.

What all share (type): in vivo
Assay [1] concerns Alternaria solani. As to the kind of experiment: Alternaria Test (tomato)/protective. Conditions: tomato plants, protective spray, 750 g/ha, evaluation 7 days after inoculation; 100% = no infection. The protocol: Alternaria Test (tomato)/protective Solvent: 49 parts by weight of N,N-dimethylformamide Emulsifier: 1 part by weight of alkylaryl polyglycol ether To produce a suitable preparation of active compound, 1 part by weight of active compound is mixed with the stated amounts of solvent and emulsifier, and the concentrate is diluted with water to the desired concentration. […] The plants then remain at 96% relative atmospheric humidity and at a temperature of 20° C.

For assay [2], the system named is Venturia inaequalis. As to the kind of experiment: Venturia Test (apple)/protective. The settings on record: 240 h, apple plants, protective spray, evaluation 10 days after inoculation, 100% = no infection, read-out: Efficacy in %. The method, then: Venturia Test (apple)/protective Solvents: 24.5 parts by weight of acetone • 24.5 parts by weight of dimethylacetamide Emulsifier: 1.0 parts by weight alkylaryl polyglycol ether To produce a suitable preparation of active compound, 1 part by weight of active compound is mixed with the stated amounts of solvent and emulsifier, and the concentrate is diluted with water to the desired concentration. To test for protective activity, young plants are sprayed with the preparation of active compound at the stated application rate. […] The plants are then placed in a greenhouse at about 21° C. and a relative atmospheric humidity of about 90%.

For assay [3], the system named is Pyricularia oryzae. Conditions: rice plants, protective spray, 500 g/ha, evaluation 7 days after inoculation; 100% = no infection.

For `Fc1ccc(-c2c(Cl)nc3ncnn3c2N2CCCCO2)c(Cl)c1` [drawing 102], the Efficacy in % in assay [1] is 100%.

In turn, `Fc1cc(F)c(-c2c(Cl)nc3ncnn3c2N2CCC=N2)c(F)c1` [drawing 103] registered an Efficacy in % in assay [1] of 95%. Regarding `Fc1ccc(-c2c(Cl)nc3ncnn3c2N2CCCCO2)c(F)c1` [drawing 48], in assay [2], the pest or weed control at 100 g/ha worked out at 96%. With `Fc1cccc(Cl)c1-c1c(Cl)nc2ncnn2c1N1CCCCN1` [drawing 106], the Efficacy in % in assay [3] is listed as 100%. Take `Clc1ccc(-c2c(Cl)nc3ncnn3c2N2CCCCN2)c(Cl)c1` [drawing 69]: the pest or weed control at 100 g/ha in assay [2] was determined as 95%. For the molecule `Fc1cc(C(F)(F)F)cc(F)c1-c1c(Cl)nc2ncnn2c1N1CCCCN1` [drawing 70], in assay [2], the pest or weed control at 100 g/ha was 100%. Still for that read-out and setting: with `Fc1cccc(Cl)c1-c1c(Cl)nc2ncnn2c1N1NC2CCC1C2` (stereo not drawn) [drawing 66] the figure was 100%.

In assay [1], `Fc1cc(F)c(-c2c(Cl)nc3ncnn3c2N2CCCCO2)c(F)c1` [drawing 101] yielded an Efficacy in % of 100%. With `CC1CCON1c1c(-c2c(F)cccc2Cl)c(Cl)nc2ncnn12` (stereo not drawn) [drawing 59], in assay [2], the pest or weed control at 100 g/ha amounted to 100%. `Fc1ccc(-c2c(Cl)nc3ncnn3c2N2CCCCO2)c(Cl)c1` [drawing 104] gave an Efficacy in % in assay [3] of 100%. On to `Clc1ccccc1-c1c(Cl)nc2ncnn2c1N1OC2CCC1C2` (stereo not drawn) [drawing 56], for which, in assay [2], the pest or weed control at 100 g/ha amounted to 99%. For `Fc1cc(F)c(-c2c(Cl)nc3ncnn3c2N2CCC=N2)c(F)c1` [drawing 63], in assay [2], the pest or weed control at 100 g/ha is 96%. The same measure, in the same setting: with `Fc1cc(F)c(-c2c(Cl)nc3ncnn3c2N2CCCCO2)c(F)c1` [drawing 46] the figure was 100%; with `CC1CCCON1c1c(-c2c(F)cc(F)cc2F)c(Cl)nc2ncnn12` (stereo not drawn) [drawing 54], 100%; with `CC1C=CCN(c2c(-c3c(F)cc(F)cc3F)c(Cl)nc3ncnn23)O1` (stereo not drawn) [drawing 50], 100%.

`Fc1cccc(F)c1-c1c(Cl)nc2ncnn2c1N1CCCCN1` [drawing 67]: the pest or weed control at 100 g/ha in assay [2] came out at 96%. On the same count and under the same terms, with `Fc1cc(F)c(-c2c(Br)nc3ncnn3c2N2CCCCN2)c(F)c1` [drawing 71] the figure was 93%.

In assay [3], `Fc1ccc(-c2c(Cl)nc3ncnn3c2N2CCCCO2)c(F)c1` [drawing 105] displayed an Efficacy in % of 100%.

For `Fc1cc(F)c(-c2c(Cl)nc3ncnn3c2N2Cc3ccccc3CO2)c(F)c1` [drawing 100], in assay [1], the Efficacy in % was found to be 100%. On to `Fc1cccc(Cl)c1-c1c(Cl)nc2ncnn2c1N1OC2CCC1C2` (stereo not drawn) [drawing 58], for which the pest or weed control at 100 g/ha in assay [2] stood at 100%. On the same count and under the same terms, with `Fc1ccc(-c2c(Cl)nc3ncnn3c2N2OC3CCC2C3)c(Cl)c1` (stereo not drawn) [drawing 62] the figure was 100%.
